# Laboratory results from the NIST ThermoML archive (doi:10.1021/je300388b).
# Numbers after ± are expanded uncertainties.
# Test: xn = mol fraction of the nth substance listed
# Conditions: Liquid
structure (smiles),measurement,setting,value
CCCCCCCCCC [decane] + O=C=O,mass density,"323.34 K, 11990 kPa, x2 = 0.869",755.53 ± 0.55 kg/m3
same,mass density,"323.38 K, 14000 kPa, x2 = 0.869",767.56 ± 0.55 kg/m3
same,mass density,"333.09 K, 10020 kPa, x2 = 0.71",736.44 ± 0.54 kg/m3
same,mass density,"333.1 K, 11960 kPa, x2 = 0.71",741.69 ± 0.54 kg/m3
same,mass density,"333.12 K, 8090 kPa, x2 = 0.71",730.25 ± 0.54 kg/m3
same,mass density,"333.12 K, 17970 kPa, x2 = 0.4698",735.23 ± 0.54 kg/m3
same,mass density,"333.12 K, 18050 kPa, x2 = 0.71",756.13 ± 0.54 kg/m3
same,mass density,"333.13 K, 8020 kPa, x2 = 0.2361",715.58 ± 0.53 kg/m3
same,mass density,"333.13 K, 11990 kPa, x2 = 0.4698",726.89 ± 0.54 kg/m3
same,mass density,"333.13 K, 14000 kPa, x2 = 0.4698",729.82 ± 0.54 kg/m3
same,mass density,"333.13 K, 14030 kPa, x2 = 0.2361",721.58 ± 0.54 kg/m3
same,mass density,"333.13 K, 14050 kPa, x2 = 0.71",746.85 ± 0.54 kg/m3
same,mass density,"333.13 K, 15960 kPa, x2 = 0.4698",732.55 ± 0.54 kg/m3
same,mass density,"333.13 K, 16020 kPa, x2 = 0.2361",723.45 ± 0.54 kg/m3
same,mass density,"333.13 K, 19020 kPa, x2 = 0.2361",726.15 ± 0.54 kg/m3
same,mass density,"333.14 K, 9930 kPa, x2 = 0.4698",723.71 ± 0.54 kg/m3
same,mass density,"333.15 K, 10020 kPa, x2 = 0.2361",717.65 ± 0.53 kg/m3
same,mass density,"333.15 K, 12030 kPa, x2 = 0.2361",719.64 ± 0.54 kg/m3
same,mass density,"333.15 K, 16040 kPa, x2 = 0.71",751.6 ± 0.54 kg/m3
same,mass density,"333.15 K, 18020 kPa, x2 = 0.2361",725.24 ± 0.54 kg/m3
same,mass density,"333.19 K, 7980 kPa, x2 = 0.4698",720.48 ± 0.54 kg/m3
same,mass density,"333.19 K, 15930 kPa, x2 = 0.869",754.21 ± 0.54 kg/m3
same,mass density,"333.2 K, 18080 kPa, x2 = 0.869",762.91 ± 0.54 kg/m3
same,mass density,"333.22 K, 14070 kPa, x2 = 0.869",745.06 ± 0.54 kg/m3
same,mass density,"343.02 K, 10240 kPa, x2 = 0.71",720.54 ± 0.54 kg/m3
same,mass density,"343.02 K, 12280 kPa, x2 = 0.71",726.49 ± 0.54 kg/m3
same,mass density,"343.1 K, 12070 kPa, x2 = 0.4698",716.06 ± 0.53 kg/m3
same,mass density,"343.11 K, 16090 kPa, x2 = 0.4698",722.46 ± 0.54 kg/m3
same,mass density,"343.11 K, 19120 kPa, x2 = 0.4698",726.87 ± 0.54 kg/m3
same,mass density,"343.12 K, 14000 kPa, x2 = 0.71",730.99 ± 0.54 kg/m3
same,mass density,"343.13 K, 8070 kPa, x2 = 0.4698",708.84 ± 0.53 kg/m3
same,mass density,"343.13 K, 16030 kPa, x2 = 0.71",736.12 ± 0.54 kg/m3
same,mass density,"343.13 K, 18000 kPa, x2 = 0.71",741.08 ± 0.54 kg/m3
same,mass density,"343.14 K, 18000 kPa, x2 = 0.4698",725.25 ± 0.54 kg/m3
same,mass density,"343.16 K, 18050 kPa, x2 = 0.869",743.75 ± 0.54 kg/m3
same,mass density,"343.18 K, 9930 kPa, x2 = 0.4698",712.24 ± 0.53 kg/m3
same,mass density,"343.19 K, 13920 kPa, x2 = 0.4698",719 ± 0.54 kg/m3
same,mass density,"343.21 K, 12010 kPa, x2 = 0.2361",711.78 ± 0.53 kg/m3
same,mass density,"343.23 K, 16060 kPa, x2 = 0.869",735.77 ± 0.54 kg/m3
same,mass density,"343.23 K, 18020 kPa, x2 = 0.2361",718.14 ± 0.53 kg/m3
same,mass density,"343.24 K, 14010 kPa, x2 = 0.2361",713.97 ± 0.53 kg/m3
same,mass density,"343.24 K, 16010 kPa, x2 = 0.2361",716.11 ± 0.53 kg/m3
same,mass density,"343.25 K, 8010 kPa, x2 = 0.2361",707.17 ± 0.53 kg/m3
same,mass density,"343.25 K, 10010 kPa, x2 = 0.2361",709.51 ± 0.53 kg/m3
same,mass density,"343.26 K, 19020 kPa, x2 = 0.2361",719.17 ± 0.54 kg/m3
same,mass density,"352.97 K, 9880 kPa, x2 = 0.71",706.61 ± 0.53 kg/m3
same,mass density,"352.99 K, 18040 kPa, x2 = 0.869",719.9 ± 0.54 kg/m3
same,mass density,"353.01 K, 11990 kPa, x2 = 0.71",711.36 ± 0.53 kg/m3
same,mass density,"353.06 K, 16040 kPa, x2 = 0.4698",711.93 ± 0.53 kg/m3
same,mass density,"353.06 K, 19020 kPa, x2 = 0.2361",711.31 ± 0.53 kg/m3
same,mass density,"353.09 K, 14010 kPa, x2 = 0.4698",708.37 ± 0.53 kg/m3
same,mass density,"353.09 K, 18080 kPa, x2 = 0.4698",715.25 ± 0.53 kg/m3
same,mass density,"353.1 K, 12020 kPa, x2 = 0.2361",703.37 ± 0.53 kg/m3
same,mass density,"353.11 K, 10030 kPa, x2 = 0.2361",700.96 ± 0.53 kg/m3
same,mass density,"353.11 K, 14010 kPa, x2 = 0.2361",705.7 ± 0.53 kg/m3
same,mass density,"353.12 K, 10090 kPa, x2 = 0.4698",700.82 ± 0.53 kg/m3
same,mass density,"353.12 K, 17940 kPa, x2 = 0.71",725.1 ± 0.54 kg/m3
same,mass density,"353.12 K, 18020 kPa, x2 = 0.2361",710.21 ± 0.53 kg/m3
same,mass density,"353.12 K, 19060 kPa, x2 = 0.4698",716.77 ± 0.53 kg/m3
same,mass density,"353.13 K, 8010 kPa, x2 = 0.2361",698.4 ± 0.53 kg/m3
same,mass density,"353.13 K, 8040 kPa, x2 = 0.4698",696.42 ± 0.53 kg/m3
same,mass density,"353.13 K, 12050 kPa, x2 = 0.4698",704.69 ± 0.53 kg/m3
same,mass density,"353.13 K, 16020 kPa, x2 = 0.2361",707.98 ± 0.53 kg/m3
same,mass density,"353.14 K, 15980 kPa, x2 = 0.71",719.92 ± 0.54 kg/m3
same,mass density,"353.26 K, 14130 kPa, x2 = 0.71",715.78 ± 0.54 kg/m3
same,mass density,"362.92 K, 12050 kPa, x2 = 0.71",698.95 ± 0.53 kg/m3
same,mass density,"362.99 K, 18090 kPa, x2 = 0.71",712.19 ± 0.54 kg/m3
same,mass density,"363.08 K, 16050 kPa, x2 = 0.71",707.18 ± 0.53 kg/m3
same,mass density,"363.28 K, 14100 kPa, x2 = 0.71",702.89 ± 0.53 kg/m3
